From article PMC6615598, “Novel antibiotics effective against gram-positive and -negative multi-resistant bacteria with limited resistance” (PLoS Biology, 2019)
Starred links: 1 amine or outer side, 2 acyl side, 3 side chain; linkers in the order of their positions; H or OH if unused. Non-standard residues stand in square brackets, D forms with d. Residues, ends and D or L forms follow the SMILES beside them. azaβ3(1Nal) = O=C(CN(Cc1cccc2ccccc12)N[*:1])[*:2]

Legend:
MRSA = experiment: Mild sepsis mouse model, survival; type: in vivo; details: mice, approximately 5 × 10^8 MRSA IV; single IV 1.5 mg.kg^−1 at 3 h or 15 h post infection; 14 d
Source text: Tolerance and toxicity studies were done on male Swiss mice (CD-1 Crl: CD-1 [ICR] IGS; Charles River). These were 7 to 10 weeks old and weighed an average of 37.2 g. All experimental protocols were approved by the Adaptive Therapeutics Animal Care and Use Committee (APAFiS #4508-2016031l15541258 v2). For the sepsis model, we used female Swiss mice (Janvier Labs), 6 to 8 weeks old and weighing approximately 30 g. Experiments were monitored in the ARCHE-BIOSIT animal lab in Rennes, in biological duplicate. We used Groups of 5 mice for the mild and the severe sepsis models with MRSA. Mice were IV inoculated with 150 μl of MRSA suspensions in 0.9% NaCl containing approximately 5 × 10^8 CFUs for the “mild” sepsis and approximately 2 × 10^9 CFUs for the “severe” sepsis, respectively. […] Mice survival was monitored for 4 d (“severe” sepsis) or 14 d (“mild” sepsis), and the statistical significance of difference(s) between the groups was evaluated using the Wilcoxon test. P < 0.05 was considered significant. Two weeks (“mild” sepsis) or 4 d (“severe” sepsis) after inoculation, mice were euthanized with CO2.

S. aureus Newman = experiment: microbe, parasite or virus in culture; details: Newman
Procedure: (§1) (10−4 M final concentrations). At selected time intervals, 100 μl of reaction mixture was collected, quenched by 200 μl 95% EtOH, and adjusted at pH 2 to prevent peptide adsorption to serum proteins. […] Supernatants were analyzed by RP-HPLC on an Xbridge C18 column with a linear gradient of water, 0.08% TFA, and acetonitrile with 1% TFA. HPLC peak areas were used to calculate the percentages of intact compound remaining at the various time points. MIC and MBC values were determined in triplicate in many ESKAPE clinical isolates, including a dozen MDR S. aureus, by the broth microdilution method. Peptidomimetics and antibiotics were assayed in a concentration range of 1 to 128 μM. The bacterial inoculum (5 × 10^5 colony-forming units [CFUs]/well) was prepared in MHB or CAMHB (150 μl). A Biotek Synergy 2 spectrophotometer was used to record the results after 18–20 h incubation at 35°C (±2°C). […] After every hour of culture for 4 h, serial dilutions were plated on BHI plates and incubated overnight at 37°C, and then the CFUs were counted and expressed as log CFU/ml. Phosphate-buffered saline (PBS)-exposed S. aureus MRSA was included as a control.

S. aureus N315 (MRSA) = experiment: microbe, parasite or virus in culture; details: N315
Procedure: as §1

S. aureus Mu3 (MRSA) = experiment: microbe, parasite or virus in culture; details: Mu3
Procedure: as §1

P. aeruginosa 15643 = experiment: microbe, parasite or virus in culture
Procedure: (§2) For 15 d in MHB, MICs were determined daily for each pseudopeptide and their antibiotic controls. This was done using cells from the well in which the compound concentration was one-half of the MIC (1/2MIC). For each compound, the 1/2MIC well from the previous day’s MIC assay plate was re-suspended and the bacteria grown to a density of about 10^8 cells ml−1. The suspension was diluted in MHB or CAMHB (10^6 cells/ml) and then used to determine the MIC of the same compound determined by micro broth dilution. All MIC measurements were performed in duplicate. Aliquots of the 5 × 10^4 cell/ml dilutions for each 1/2MIC well were periodically plated on MHB and incubated at 35°C for 18 h to verify cell density by colony counts and for visual inspection of colony phenotypes. To control compound stability, peptide solution MICs were determined during and at the end of the 15 d and were compared to cells unexposed to antibiotics. In vivo resistance was also assessed in treated mice (1.5 mg.kg^−1) for 4 d (sepsis) or 6 d (skin abscesses). […] The broth microdilution method was performed as per EUCAST recommendations on 5 independent colonies per mouse (3 mice per set, 15 colonies per drug tested). For severe sepsis and subcutaneous abscesses, in vivo resistance was determined by plating aliquots of crude kidney extracts or abscesses on plates containing 1-, 2-, 4-, or 8-fold the peptide MICs 7 or 3 d post infections, respectively.

E. coli 13090 = experiment: microbe, parasite or virus in culture
Procedure: as §2

E. coli K12 = experiment: microbe, parasite or virus in culture
Procedure: as §2

E. coli MCR1 = experiment: microbe, parasite or virus in culture
Procedure: as §2

MRSA (Mu3) = experiment: microbe, parasite or virus in culture; details: MRSA (Mu3)
Procedure: as §2

MSSA (Newman) = experiment: microbe, parasite or virus in culture; details: MSSA (Newman)
Procedure: as §2

[1] = Stability in mouse serum (half-life); type: in vitro ADME; details: 25% mouse serum, pre-incubated 15 min at 37°C, peptide 10^−4 M, RP-HPLC peak areas, mean of biological triplicates
Procedure: as §1
Supplementary file pbio.3000337.s013.docx: S7 Table Peptide half-lives in human and mouse sera. […] Peptide amounts and half-lives were determined by HPLC. Experiments were conducted on 25% human or mouse sera. Values are shown in minutes. The mean values correspond to biological triplicates. HPLC, high pressure liquid chromatography. (DOCX) Click here for additional data file.

S. aureus FORT = experiment: microbe, parasite or virus in culture
Procedure: as §1
(§3) Supplementary file pbio.3000337.s007.docx: S1 Table Antibacterial activity of the 4 peptidomimetics focusing on 9 S. aureus MDR clinical isolates. Clinical isolates BCB/POE and 740404 DUN are from human sepsis. The other strains are from catheter infections or suppurating wounds. Brilacidin was used as a control. MDR, multidrug resistant. (DOCX) Click here for additional data file.

S. aureus COB = experiment: microbe, parasite or virus in culture
Procedure: as §1, §3

S. aureus BCB/POE = experiment: microbe, parasite or virus in culture
Procedure: as §1, §3

S. aureus 66534 E = experiment: microbe, parasite or virus in culture
Procedure: as §1, §3

[2] = P. aeruginosa 15643, d0 of serial passages
[3] = P. aeruginosa 15643, d14 of serial passages at sub-MIC
[4] = E. coli 13090, d0 of serial passages
[5] = E. coli 13090, d14 of serial passages at sub-MIC
[6] = E. coli K12, d0 of serial passages
[7] = E. coli K12, d14 of serial passages at sub-MIC
[8] = E. coli MCR1, d0 of serial passages
[9] = E. coli MCR1, d14 of serial passages at sub-MIC
[10] = d14 of serial passages at sub-MIC

Structure (SMILES)	Survival in mild sepsis (MRSA)	MIC (S. aureus Newman)	MIC (S. aureus N315 (MRSA))	MIC (S. aureus Mu3 (MRSA))	MIC (P. aeruginosa 15643; [2])	MIC (P. aeruginosa 15643; [3])	MIC (E. coli 13090; [4])	MIC (E. coli 13090; [5])	MIC (E. coli K12; [6])	MIC (E. coli K12; [7])	MIC (E. coli MCR1; [8])	MIC (E. coli MCR1; [9])	MIC (MRSA (Mu3); [10])	MIC (MSSA (Newman); d0 of serial passages)	MIC (MSSA (Newman); [10])	half-life [1] [h]	other results
CC(C)[C@@H]1NC(=O)[C@H](CCCNC(=N)N)NC(=O)[C@H](CCCNC(=N)N)NC(=O)[C@H](Cc2c[nH]c3ccccc23)NC(=O)[C@H](Cc2ccccc2)NC(=O)[C@H](Cc2ccccc2)NC(=O)[C@H](CCCCN)NC1=O [Pep18] (cyclo(FFWRRVK))	no effect	16 (16.4) μM	8 (8.2) μM	8 (8.2) μM	16 (16.4) μM	16 (16.4) μM	16 (16.4) μM	64 (65.6) μM	16 (16.4) μM	64 (65.6) μM	16 (16.4) μM	64 (65.6) μM	16 (16.4) μM	16 (16.4) μM	64 (65.6) μM	8.5 ± 2.5	MIC (S. aureus FORT; MDR S. aureus clinical isolate FORT): >32 mg/L^-1; MIC (S. aureus COB; MDR S. aureus clinical isolate COB): 32 mg/L^-1; MIC (S. aureus BCB/POE; MDR S. aureus clinical isolate BCB/POE, human sepsis): 32 mg/L^-1; MIC (S. aureus 66534 E; MDR S. aureus clinical isolate 66534 E): 32 mg/L^-1
CC(C)[C@@H]1NC(=O)[C@H](CCCNC(=N)N)NC(=O)[C@H](CCCNC(=N)N)NC(=O)CN(Cc2cccc3ccccc23)NC(=O)[C@H](Cc2ccccc2)NC(=O)CN(Cc2cccc3ccccc23)NC(=O)[C@H](CCCCN)NC1=O [Pep19] (cyclo([azaβ3(1Nal)]F[azaβ3(1Nal)]RRVK))	survived better than those without treatment	4 (4.5) μM	4 (4.5) μM	4 (4.5) μM	8 (8.8) μM	16 (16.2) μM	8 (8.8) μM	8 (8.8) μM	4 (4.4) μM	8 (8.8) μM	8 (8.8) μM	8 (8.8) μM	8 (8.8) μM	4 (4.4) μM	4 (4.4) μM	9 ± 1.75	MIC (MRSA (Mu3); d0 of serial passages): 4 (4.4) μM; MIC (S. aureus FORT; FORT): 8 mg/L^-1; MIC (S. aureus COB; COB): 2 mg/L^-1; MIC (S. aureus BCB/POE; BCB/POE): 8 mg/L^-1; MIC (S. aureus 66534 E; 66534 E): 2 mg/L^-1
